Where “and” joins values, the source holds several entries; their conditions need not be identical. Identical values can stand only once. Inconclusive results and toxic doses are left out. Rule for the calls: active = survival T/C of 150% or more; inactive = T/C below 125% in these data.
Tested on: P388 leukemia ip, CD2F1 mice, survival T/C
Assay: NCI In Vivo Anticancer Drug Screen. Data for tumor model P388 Leukemia (intraperitoneal) in CD2F1 (CDF1) mice
Details: endpoint: median survival time, higher = longer survival
Procedure, shortened: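 Mice carrying the transplanted tumor received test compound or vehicle. Survival was recorded in each group, and the value is the treated-group measurement divided by that of the vehicle-treated control group.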

[1] = dose: 50.0 mg/kg/injection, schedule: Q01DX005 (ip), vehicle: saline with Tween-80
[2] = dose: 100.0 mg/kg/injection, schedule: Q01DX005 (ip), vehicle: saline with Tween-80
[3] = dose: 200.0 mg/kg/injection, schedule: Q01DX005 (ip), vehicle: saline with Tween-80
[4] = dose: 50.0 mg/kg/injection, schedule: Q01DX005 (ip), vehicle: Klucel (hydroxypropylcellulose) (HPC)
[5] = dose: 100.0 mg/kg/injection, schedule: Q01DX005 (ip), vehicle: Klucel (hydroxypropylcellulose) (HPC)
[6] = dose: 6.25 mg/kg/injection, schedule: Q01DX005 (ip), vehicle: saline
[7] = dose: 12.5 mg/kg/injection, schedule: Q01DX005 (ip), vehicle: saline
[8] = dose: 50.0 mg/kg/injection, schedule: Q01DX009 (ip), vehicle: saline
[9] = dose: 100.0 mg/kg/injection, schedule: Q01DX009 (ip), vehicle: saline

Measured: T/C

CCCCCCCCC(=O)OCCNC(=O)C(C)OC(=O)CCCCCCCC (stereo not given)
inactive: dose: 100.0 mg/kg/injection, schedule: Q01DX009 (ip), vehicle: Klucel (hydroxypropylcellulose) (HPC) 96 % of control | dose: 200.0 mg/kg/injection, schedule: Q01DX009 (ip), vehicle: Klucel (hydroxypropylcellulose) (HPC) 100 % of control | dose: 400.0 mg/kg/injection, schedule: Q01DX009 (ip), vehicle: Klucel (hydroxypropylcellulose) (HPC) 98 % of control

Cn1c(CN(CCN(Cc2nc3ccccc3n2C)Cc2nc3ccccc3n2C)Cc2nc3ccccc3n2C)nc2ccccc21
inactive: [1] 100 % of control | [2] 96 % of control | [3] 101 % of control

CCC(O)C(C[N+](=O)[O-])C(=O)OC (stereo not given)
inactive: dose: 50.0 mg/kg/injection, schedule: Q01DX005 (ip), vehicle: saline 109 % of control | dose: 100.0 mg/kg/injection, schedule: Q01DX005 (ip), vehicle: saline 107 % of control | dose: 200.0 mg/kg/injection, schedule: Q01DX005 (ip), vehicle: saline 102 % of control

[Fe].[c-]1[c-][c-][c-](CNc2ncnc3nc[nH]c23)[c-]1.[c-]1[c-][c-][cH-][c-]1
inactive: dose: 12.5 mg/kg/injection, schedule: Q01DX005 (ip), vehicle: Klucel (hydroxypropylcellulose) (HPC) 97 % of control | dose: 25.0 mg/kg/injection, schedule: Q01DX005 (ip), vehicle: Klucel (hydroxypropylcellulose) (HPC) 100 % of control | [4] 86 % of control | [5] 91 % of control

CC(Cc1ccc2c(c1)OCO2)NN (stereo not given)
inactive: dose: 3.12 mg/kg/injection, schedule: Q01DX005 (ip), vehicle: saline 102 % of control | [6] 96 % of control | [7] 98 % of control

CC(=O)c1ccccc1C(C)C
inactive: dose: 25.0 mg/kg/injection, schedule: Q01DX009 (ip), vehicle: saline with Tween-80 100 % of control | dose: 50.0 mg/kg/injection, schedule: Q01DX009 (ip), vehicle: saline with Tween-80 109 % of control | dose: 100.0 mg/kg/injection, schedule: Q01DX009 (ip), vehicle: saline with Tween-80 119 % of control

CCOC(=O)/C=C(\C)NC(C)=NC(C)(C)C
inactive: [8] 93 % of control | [9] 89 % of control

N#CC(C=C(c1ccccc1)c1ccccc1)c1ccccc1 (stereo not given)
inactive: dose: 100.0 mg/kg/injection, schedule: Q04DX003 (ip), vehicle: saline 98 % of control | dose: 200.0 mg/kg/injection, schedule: Q04DX003 (ip), vehicle: saline 98 % of control | dose: 400.0 mg/kg/injection, schedule: Q04DX003 (ip), vehicle: saline 96 % of control

CCC(=O)NC1c2ccccc2Oc2ccccc21
inactive: [1] 100 % of control | [2] 100 % of control | [3] 98 % of control

CC(=O)[O-].CC(=O)[O-].O=C(N/N=C/c1ccccc1[OH2+])c1ccncc1.[Zn+2]
inactive: dose: 60.0 mg/kg/injection, schedule: Q01DX005 (ip), vehicle: Klucel (hydroxypropylcellulose) (HPC) 100 % of control | dose: 120.0 mg/kg/injection, schedule: Q01DX005 (ip), vehicle: Klucel (hydroxypropylcellulose) (HPC) 100 % of control | dose: 240.0 mg/kg/injection, schedule: Q01DX005 (ip), vehicle: Klucel (hydroxypropylcellulose) (HPC) 99 % of control

Nc1cccc(NCc2ccccn2)n1
inactive: [4] 101 % of control | [5] 104 % of control

c1cc2cc(c1)CSCCCSCc1cccc(c1)CSCCCSC2
inactive: dose: 50.0 mg/kg/injection, schedule: Q04DX002 (ip), vehicle: saline 103 % of control | dose: 100.0 mg/kg/injection, schedule: Q04DX002 (ip), vehicle: saline 105 % of control | dose: 200.0 mg/kg/injection, schedule: Q04DX002 (ip), vehicle: saline 100 % of control

CC[N+](CC)=c1cc2oc3cc(N(C)C)ccc3nc-2cc1C
inactive: dose: 6.25 mg/kg/injection, schedule: Q01DX005 (ip), vehicle: saline with Tween-80 99 % of control and 107 % of control | [6] 107 % of control | dose: 12.5 mg/kg/injection, schedule: Q01DX005 (ip), vehicle: saline with Tween-80 106 % of control and 110 % of control | [7] 112 % of control | dose: 25.0 mg/kg/injection, schedule: Q01DX005 (ip), vehicle: saline with Tween-80 109 % of control and 115 % of control | dose: 25.0 mg/kg/injection, schedule: Q01DX005 (ip), vehicle: saline 122 % of control | [1] 109 % of control and 110 % of control and 112 % of control

CC(O)CNC1c2ccccc2CC1O (stereo not given)
inactive: dose: 25.0 mg/kg/injection, schedule: Q01DX009 (ip), vehicle: saline 108 % of control | [8] 100 % of control | [9] 100 % of control
